The results in this text go back to US5136076A, “Process for the preparation of amino acid-derived enatiomeric compounds” (Societe Civile Bioprojet, priority 1987, dated 1992).

For one test, the system named is enkephalinase. Kind of test: Enkephalinase inhibition in vivo in mouse striatum (Table 1 (b)). The settings on record: 30 mn after i.v. administration, 30 min. From the text: (§1) Dosage of `enkephalinase` activity and angiotensin convertase (ACE) activity with determination of the effect of inhibitors both in vitro and on mouses in vivo: inhibition of the same enzymes and protection of natriuretic auricular factor.
(§2) ENKEPHALINASE AND ACE INHIBITING ACTIVITIES IN IN VITRO AND IN VIVO STRIATUM
(b)Activity measured in mouse striatum 30 mn after i.v. administration
according to LlorensCortes et al., Eur. J. Pharmacol., 1985, 119, 183.

Test [1] has as its target T1, ACE (angiotensin convertase) (Mus musculus, UniProt P09470).
T1 construct: Activities measured on mouse striatum membranes in vitro or 30; from tissue; host or cells: mouse striatum (membranes)
T1 sequence (P09470 35-1312): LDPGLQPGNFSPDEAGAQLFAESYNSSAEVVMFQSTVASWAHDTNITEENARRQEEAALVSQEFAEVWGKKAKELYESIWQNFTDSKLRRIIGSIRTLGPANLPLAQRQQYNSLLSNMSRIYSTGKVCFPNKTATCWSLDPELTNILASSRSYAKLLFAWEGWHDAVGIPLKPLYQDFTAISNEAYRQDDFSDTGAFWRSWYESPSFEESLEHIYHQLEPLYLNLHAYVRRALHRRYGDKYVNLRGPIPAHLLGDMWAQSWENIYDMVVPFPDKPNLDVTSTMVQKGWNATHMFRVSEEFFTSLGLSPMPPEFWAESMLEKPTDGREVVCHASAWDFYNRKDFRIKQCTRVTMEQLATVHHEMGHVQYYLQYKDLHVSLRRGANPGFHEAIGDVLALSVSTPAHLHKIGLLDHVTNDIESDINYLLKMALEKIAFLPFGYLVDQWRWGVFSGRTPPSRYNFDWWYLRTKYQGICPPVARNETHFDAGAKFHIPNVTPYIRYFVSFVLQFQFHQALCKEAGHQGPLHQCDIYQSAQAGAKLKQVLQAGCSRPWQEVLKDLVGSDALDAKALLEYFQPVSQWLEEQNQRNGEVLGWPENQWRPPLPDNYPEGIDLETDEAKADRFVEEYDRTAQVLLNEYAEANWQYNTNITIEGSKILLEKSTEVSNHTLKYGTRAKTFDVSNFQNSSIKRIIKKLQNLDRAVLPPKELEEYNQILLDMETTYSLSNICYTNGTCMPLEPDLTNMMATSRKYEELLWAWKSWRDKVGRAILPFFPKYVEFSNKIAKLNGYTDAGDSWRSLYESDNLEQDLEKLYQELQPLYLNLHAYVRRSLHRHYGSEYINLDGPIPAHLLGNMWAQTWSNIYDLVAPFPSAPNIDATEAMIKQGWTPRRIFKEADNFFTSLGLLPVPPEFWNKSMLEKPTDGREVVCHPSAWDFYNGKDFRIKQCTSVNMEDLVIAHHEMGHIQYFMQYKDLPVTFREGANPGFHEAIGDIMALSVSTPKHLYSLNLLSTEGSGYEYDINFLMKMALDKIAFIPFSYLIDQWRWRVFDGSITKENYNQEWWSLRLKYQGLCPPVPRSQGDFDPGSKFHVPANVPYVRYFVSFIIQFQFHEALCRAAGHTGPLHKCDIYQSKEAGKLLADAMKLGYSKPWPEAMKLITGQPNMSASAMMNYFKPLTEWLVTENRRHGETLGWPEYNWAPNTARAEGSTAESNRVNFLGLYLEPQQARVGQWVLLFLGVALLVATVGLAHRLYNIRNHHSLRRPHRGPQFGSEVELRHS
In words: ACE inhibition in vitro on mouse striatum membranes (Table 1 (c)). Format: biochemical.
Text: as §1, §2
(c) and (d)Activities measured on mouse striatum membranes in vitro or 30
mn after i.v. administration according to Yang and Neff, J. Neurochem, […]

The subject of a further test is renal enkephalinase. Kind of test: Inhibition of linking between Acetorphan and renal enkephalinase after oral administration (Table 2 (a)). The settings on record: kidney, 0.3 mg/kg oral, 90 minutes after administration. The class given is in vivo, mouse.
Text: as §1
(§3) ENKEPHALINASE INHIBITING ACTIVITIES AND PROTECTION OF NATRIURETIC AURICULAR FACTOR (ANF) IN THE KIDNEY IN VIVO
(a) Inhibition of the linking between […] Acetorphan and renal
enkephalinase measured according to S. de la Baume, M. Tuong, F. Brion, J
C. Schwartz (J.P.E.T. 1988, forthcoming) 90 minutes after oral
administration of compounds 1 or 2 at a dose of 0.3 mg/kg.

Test [2] concerns natriuretic auricular factor (ANF) in the kidney. Kind of test: Protection of natriuretic auricular factor (ANF) in the kidney in vivo (Table 2 (b)). Also noted: species or system mouse. The settings on record: for Increase of ANF (%): renal 125I ANF 2 min after i.v. administration of 10^6 cpm, compound 0.3 mg/kg orally 90 min before, 0.3 mg/kg. The procedure:
as §1, §3
(b) Increase in the renal level of ^125 I ANF, as measured 2 min afte
i.v. administration of 10^6 cpm to mouses having been given compounds
1 or 2, 90 min before (0.3 mg/kg, orally).
Compound 2 (0.3 mg/kg, p.o.) induces in the same test an increase of renal ^125 I ANF of 75±7% after 30 min and […] after 180 min.

The test system of another test is dogs. In words: Colic motive activity (motive index) after standard meal. The class given is in vivo, dog. From the text:
Motive index (as evaluated with a restraint gauge).
Influence of previous intravenous (i.v.) or oral (p.o.) administration of
compound or the variations of the colic motive index after standard meal

The next test relates to cats. In words: Inhibition of stimulated gastric acid secretion. Format: in vivo, cat. The settings on record: 0.5, 1.5 and 5 mg/kg i.v.; p<0.05.

As to `CC(=O)SCC(Cc1ccccc1)C(=O)NCC(=O)OCc1ccccc1` (single isomer, unassigned) [Compound (1)], the “Enkephalinase In vivo(b) (DE50, mg/kg)” value with enkephalinase is recorded as 0.8 mg/kg. Further, it took 5000 nM to reach half-maximal inhibition in test [1] (IC50). Further, the “Inhibition of enkephalinase (%)” value in the test on renal enkephalinase turned out to be 15 ± 6%. In addition, the “Increase of ANF (%)” value in test [2] was “inactive”. Also, in the test with dogs (1 mg/kg i.v.), the “Motive index, After meal (0/+2 h)” value worked out at 15.2 ± 2.4; the “Motive index, After meal (+2/10 h)” value is 18.3 ± 3.1; the “Motive index, Before meal (-2/0)” value is on record as 5.9 ± 0.7. In the test with dogs (10 mg/kg p.o.), the “Motive index, After meal (0/+2 h)” value worked out at 17.4 ± 2.7; the “Motive index, After meal (+2/10 h)” value came to 21.5 ± 4.6; the “Motive index, Before meal (-2/0)” value is listed as 6.4 ± 0.8. Moreover, in the test with dogs (dogs, postprandial periods), the “colic motricity as an answer to the intake of food” value was “potentiates an increase in colic motricity”. Besides, in the test with cats, the “stimulation of gastric acid secretion induced by Pentagastrin, 2-deoxyglucose and histamin” value was “significatively decreased”.
For the molecule `CC(=O)SCC(Cc1ccccc1)C(=O)NCC(=O)OCc1ccccc1` (single isomer, unassigned) [Compound (2)], the “Enkephalinase In vivo(b) (DE50, mg/kg)” value in the test with enkephalinase is on record as 0.4 mg/kg. For the same molecule, the 50% inhibitory concentration (IC50) (in general, the point on the concentration scale where inhibition reaches its midpoint) in test [1] is 100 nM. In the test with renal enkephalinase, the “Inhibition of enkephalinase (%)” value amounted to 54 ± 6%. Besides, the “increase of renal 125I ANF” value in test [2] (0.3 mg/kg p.o., after 30 min) amounted to 75±7%. The “Increase of ANF (%)” value in test [2] was 33 ± 3%. In addition, in the test on dogs (5 mg/kg p.o.), the “Motive index, After meal (0/+2 h)” value amounted to 16.3 ± 2.5; the “Motive index, After meal (+2/10 h)” value came out at 20.1 ± 3.7; the “Motive index, Before meal (-2/0)” value stood at 6.2 ± 0.9. Also, in the test with cats, the “stimulation of gastric acid secretion induced by Pentagastrin, 2-deoxyglucose and histamin” value is reported as “significatively decreased”.
